These results are taken from US10794932B2, “Biosensor for the detection of a biological target, and method for manufacturing the same” (The Governing Council of The University of Toronto, priority 2016, dated 2020).

Assay [1] deals with Toll-like receptor expressing cells. The following applies: cited from earlier work.
Another assay deals with T1, 'rmTLR1 and 2' mixture (Mus musculus, UniProt Q9EPQ1+Q9QUN7).
T1 construct: Fc (chimera); purchased R&D Systems RDS1476TR050 + RDS1530TR050
T1 sequence (Q9EPQ1 26-582 limits assumed): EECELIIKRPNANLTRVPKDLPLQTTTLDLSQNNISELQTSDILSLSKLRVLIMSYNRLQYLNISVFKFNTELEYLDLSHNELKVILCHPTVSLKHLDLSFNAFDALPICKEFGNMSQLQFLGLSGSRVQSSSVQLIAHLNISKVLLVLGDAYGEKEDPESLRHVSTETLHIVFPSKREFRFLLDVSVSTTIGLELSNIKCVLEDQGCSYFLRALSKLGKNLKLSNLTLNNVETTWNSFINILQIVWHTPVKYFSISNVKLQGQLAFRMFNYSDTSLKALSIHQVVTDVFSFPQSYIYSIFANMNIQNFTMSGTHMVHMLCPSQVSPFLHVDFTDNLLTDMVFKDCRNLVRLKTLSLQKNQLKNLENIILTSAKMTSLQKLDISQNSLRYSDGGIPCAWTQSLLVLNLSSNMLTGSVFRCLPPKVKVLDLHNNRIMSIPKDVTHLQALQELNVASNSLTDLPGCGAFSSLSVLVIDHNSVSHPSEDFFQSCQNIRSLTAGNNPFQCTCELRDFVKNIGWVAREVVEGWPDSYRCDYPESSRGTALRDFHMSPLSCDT
T1 sequence (Q9QUN7 25-587 limits assumed): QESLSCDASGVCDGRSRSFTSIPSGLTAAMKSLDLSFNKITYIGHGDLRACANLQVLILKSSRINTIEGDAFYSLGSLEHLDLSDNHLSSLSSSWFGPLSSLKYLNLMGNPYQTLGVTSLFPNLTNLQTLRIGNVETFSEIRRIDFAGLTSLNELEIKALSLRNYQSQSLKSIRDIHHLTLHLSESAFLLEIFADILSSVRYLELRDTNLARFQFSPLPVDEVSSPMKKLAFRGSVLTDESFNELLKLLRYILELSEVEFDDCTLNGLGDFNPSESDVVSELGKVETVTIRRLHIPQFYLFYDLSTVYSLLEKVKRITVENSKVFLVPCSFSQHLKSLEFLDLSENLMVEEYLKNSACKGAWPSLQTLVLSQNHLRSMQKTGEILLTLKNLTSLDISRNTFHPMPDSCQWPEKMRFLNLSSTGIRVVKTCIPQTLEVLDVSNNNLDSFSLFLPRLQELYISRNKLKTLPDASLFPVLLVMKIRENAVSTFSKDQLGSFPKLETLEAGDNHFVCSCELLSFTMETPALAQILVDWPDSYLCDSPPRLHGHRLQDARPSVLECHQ
Briefly: Label-free hybridized 'TLR1 and 2' sensor, EIS detection of Pam3CSK4 (Example 7). Type of assay: binding. The following applies: for delta Rct % / Rct: 'TLR1 and 2' sensor; for delta Rct %: 20 minutes; for Rct: before immersion 5472. The procedure: TLR sensors were prepared using fresh, cleaned gold electrodes. The electrodes were immersed in a 2 mM 1-lipoic acid n-hydroxysuccinimide ester (LPA) ethanol solution for 48 hours at 277 K. The electrodes were then rinsed thoroughly using absolute ethanol and blown dry under nitrogen before incubation in 200 μg/ml rmTLR1, 200 μg/ml rmTLR2 and 200 μg/ml ‘rmTLR1 and 2’ mixture for 72 hours at 277 K. The rmTLR1 and 2 mixture was prepared by mixing 200 μg/ml rmTLR1 and 200 μg/ml rmTLR2 with a volume ratio of 1:1. The final concentration of each component was 100 μg/ml and the total concentration of the combined TLR protein content was 200 μg/ml. Following the supplier's recommended conditions, all TLRs were prepared in PBS buffer (pH˜7.4). The electrodes were rinsed with an excess volume of Milli-Q water and blown dry under nitrogen. An ethanolamine-tris buffer solution was prepared by dissolving 1.2 g of ethanolamine and 0.121 g of Tris base in 20 mL of water, the pH was adjusted to 8.4 using hydrochloric acid. TLR-immobilized electrodes were incubated in the ethanolamine solution for one hour at room temperature in order to block any remaining unreacted LPA amine sites. The fabricated sensors with immobilized, standalone rmTLR3, rmTLR4/MD-2 and rmTLR5, used for the selectivity test, were prepared using the same protocol described above.
Pam3CSK4 was dissolved in 10 mM HEPES aqueous buffer at pH˜7.4. The blocked rmTLR biosensors were incubated in Pam3CSK4 at various concentrations for 20 minutes. The electrodes were always washed thoroughly with same HEPES buffer (pH˜7.4) after the incubation.
All electrochemical measurements were carried out using a cell with a three-electrode configuration in an enclosed Faraday cage. CV and EIS measurements were completed using a CHI-660b potentiostat (CH Instruments, Austin, Tex.). rmTLR-modified gold electrodes and platinum (Pt) wire were used as the working electrode and the counter electrode, respectively. A reference electrode (Ag/AgCl/3.0M KCl) and a salt bridge, filled with an agar and 1M KNO3 aqueous solution, were inserted to minimize the diffusion of chloride ions into the electrolyte solution. The agar solution was prepared by dissolving 2.0 grams of agar and 10.1 g KNOB in 100 mL of water. The CV and EIS electrolyte was made in a 10 mM HEPES aqueous buffer at pH˜7.4, which consisted of a 5 mM K4Fe(CN)6/5 mM K3Fe(CN)6 as a redox couple with 1M of NaClO4 as the supporting electrolyte. For consistency, the electrochemical measurements were carried out with open-circuit potentials. EIS experiments were conducted in the frequency range of 100,000 to 0.1 Hz with an amplitude of 5 mV. The experimental EIS curves were evaluated to determine the film resistance using ZSimpWin 2.0 software.

Take Pam3CSK4: in assay [1], the “detection (lowest level previously reported)” value was 2 µg/mL. Moreover, the “delta Rct %” value came to 37±11% on 'rmTLR1 and 2' mixture (5 μM); 125±19% on 'rmTLR1 and 2' mixture (25 μM); 199±26% on 'rmTLR1 and 2' mixture (50 μM). Besides, the Rct on 'rmTLR1 and 2' mixture (after 5 μM) is reported as 5688 Ω · cm^2; on 'rmTLR1 and 2' mixture (after 10 μM) it was 7147 Ω · cm^2; on 'rmTLR1 and 2' mixture (after 25 μM), 11260 Ω · cm^2; at 'rmTLR1 and 2' mixture (after 50 μM) it was 15620 Ω · cm^2. In addition, the limit of detection on 'rmTLR1 and 2' mixture (hybridized 'TLR1 and 2' sensor) was 5 µM.
